In patent US20220175754A1, “P97 INHIBITORS FOR TREATING CANCER AND NEURODEGENERATIVE DISORDERS” (Lundquist Institute for Biomedical Innovation at …, priority 2018, published 2022):
Read-outs that look alike come from different tables or passages of the source.

Key:
P97 = P97 (Homo sapiens, UniProt P55072); test: P97 Biomolgreen ATPase assay, 200 μM ATP; assay type: biochemical
Description: The following Table IV provides relevant results. The compound number in Table IV correlates to the numbered compounds in Table III.

LoxIMVI (BRAFV600E) = test: Anti-proliferative activity, LoxIMVI; assay type: cell-based; conditions: Homo sapiens, LOX IMVI, skin cancer, read-out: Anti-proliferative activity (μM) of NMS-873
Description: (§1) Cells were seeded on a 384-well solid white plate (5,000 cells/well). Cells were transfected with luciferase siRNA or p97 siRNA (10 nM) for 48 h or treated with compounds for the indicated amount of time. Caspase-3/7 Glo, caspase-6 Glo, caspase-8 Glo, or caspase-9 Glo (Promega) was added into each well and mixed by shaking at 500 rpm for 1 min. Luminescence signal was determined after incubation at room temperature for 1 h. Cellular viability was determined with Cell-Titer-Glo reagent (Promega). […] IC50 values were calculated from fitting the percentage of luminescence signal normalized to DMSO treated cells).

HCT116 = test: Anti-proliferative activity, HCT116; assay type: cell-based; conditions: Homo sapiens, HCT-116, Colon, read-out: Anti-proliferative activity (μM) of NMS-873
Description: (§2) Cells were seeded on a 384-well solid white plate (5,000 cells/well). Cells were transfected with luciferase siRNA or p97 siRNA (10 nM) for 48 h or treated with compounds for the indicated amount of time. […] Cellular viability was determined with Cell-Titer-Glo reagent (Promega). […] IC50 values were calculated from fitting the percentage of luminescence signal normalized to DMSO treated cells).

A549 = test: Anti-proliferative activity, A549; assay type: cell-based; conditions: Homo sapiens, Lung Cancer, read-out: Anti-proliferative activity (μM) of NMS-873
Description: as §1

SKMel2 (NRASQ61R) = test: Anti-proliferative activity, SKMel2; assay type: cell-based; conditions: Homo sapiens, SK-MEL-2, skin cancer, read-out: Anti-proliferative activity (μM) of NMS-873
Description: as §1

PANC-1 = test: Anti-proliferative activity, PANC-1; assay type: cell-based; conditions: Homo sapiens, Pancreatic cancers, read-out: Anti-proliferative activity (μM) of NMS-873
Description: as §1

MDA-MB-468 = test: Anti-proliferative activity, MDA-MB-468; assay type: cell-based; conditions: Homo sapiens, Breast, read-out: Anti-proliferative activity (μM) of NMS-873
Description: as §2

SW620 = test: Anti-proliferative activity, SW620; assay type: cell-based; conditions: Homo sapiens, SW-620, Colon, read-out: Anti-proliferative activity (μM) of NMS-873
RPMI8226 = test: Anti-proliferative activity, RPMI8226; assay type: cell-based; conditions: Homo sapiens, RPMI-8226, Multiple Myeloma, read-out: Anti-proliferative activity (μM) of NMS-873
MCF-7 = test: Anti-proliferative activity, MCF-7; assay type: cell-based; conditions: Homo sapiens, MCF7, Breast, read-out: Anti-proliferative activity (μM) of NMS-873
Description: as §2

MDA-MB-231 = test: Anti-proliferative activity, MDA-MB-231; assay type: cell-based; conditions: Homo sapiens, Breast, read-out: Anti-proliferative activity (μM) of NMS-873
Description: as §2

BxPC-3 = test: Anti-proliferative activity, BxPC-3; assay type: cell-based; conditions: Homo sapiens, Pancreatic cancers, read-out: Anti-proliferative activity (μM) of NMS-873
Description: as §1

WM3918 (BRAF/NRAS WT) = test: Anti-proliferative activity, WM3918; assay type: cell-based; conditions: skin cancer, read-out: Anti-proliferative activity (μM) of NMS-873
Description: as §1

SKMel5 (BRAFV600E) = test: Anti-proliferative activity, SKMel5; assay type: cell-based; conditions: Homo sapiens, SK-MEL-5, skin cancer, read-out: Anti-proliferative activity (μM) of NMS-873
Description: as §1

CCRF-CEM = test: Anti-proliferative activity, CCRF-CEM; assay type: cell-based; conditions: Homo sapiens, blood cancer, read-out: Anti-proliferative activity (μM) of NMS-873
A375 (BRAFV600E) = test: Anti-proliferative activity, A375; assay type: cell-based; conditions: Homo sapiens, A-375, skin cancer, read-out: Anti-proliferative activity (μM) of NMS-873
HCT15 = test: Anti-proliferative activity, HCT15; assay type: cell-based; conditions: Homo sapiens, HCT-15, Colon, read-out: Anti-proliferative activity (μM) of NMS-873
Description: as §2

Molt4 = test: Anti-proliferative activity, Molt4; assay type: cell-based; conditions: Homo sapiens, MOLT-4, blood cancer, read-out: Anti-proliferative activity (μM) of NMS-873
[1] = read-out: P97 Biomolgreen, IC50

P97, sequence (P55072 whole entry): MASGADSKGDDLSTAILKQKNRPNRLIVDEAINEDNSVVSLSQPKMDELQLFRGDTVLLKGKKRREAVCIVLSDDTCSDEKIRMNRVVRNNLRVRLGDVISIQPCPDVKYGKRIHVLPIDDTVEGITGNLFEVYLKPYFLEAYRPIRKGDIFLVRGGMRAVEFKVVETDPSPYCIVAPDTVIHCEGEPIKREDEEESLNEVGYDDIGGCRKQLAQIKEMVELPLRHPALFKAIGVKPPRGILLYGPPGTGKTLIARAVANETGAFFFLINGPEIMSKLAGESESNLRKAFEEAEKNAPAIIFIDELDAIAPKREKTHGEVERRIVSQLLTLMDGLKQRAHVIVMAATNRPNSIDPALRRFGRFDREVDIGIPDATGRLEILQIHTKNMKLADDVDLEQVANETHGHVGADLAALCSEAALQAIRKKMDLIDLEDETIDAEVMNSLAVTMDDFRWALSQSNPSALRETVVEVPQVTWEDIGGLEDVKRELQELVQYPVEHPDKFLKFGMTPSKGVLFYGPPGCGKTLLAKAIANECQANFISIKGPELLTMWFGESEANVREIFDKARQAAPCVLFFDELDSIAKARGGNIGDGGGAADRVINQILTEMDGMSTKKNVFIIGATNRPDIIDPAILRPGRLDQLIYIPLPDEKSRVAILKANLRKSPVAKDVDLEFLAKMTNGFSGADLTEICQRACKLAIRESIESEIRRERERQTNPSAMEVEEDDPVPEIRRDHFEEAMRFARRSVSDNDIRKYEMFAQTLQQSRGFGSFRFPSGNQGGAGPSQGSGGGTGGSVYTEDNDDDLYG

COC(C)NCC#Cc1ccc(OCc2nnc(SC3CCCC3)n2-c2cccnc2)cc1C (stereo not shown) [Compound 12] gave an IC50 (P97) of 29 nM.

With [2H]C1([2H])C([2H])([2H])C([2H])([2H])C([2H])(Sc2nnc(COc3ccc(C#CC(C)OC(=O)NCCN4CCN(C(C)C)CC4)c(C)c3)n2-c2cccnc2)C1([2H])[2H] (stereo not shown) [Compound 42] the IC50 (P97) was 130 nM.

Work on Cc1cc(OCc2nnc(SC3CCCC3)n2-c2cccnc2)ccc1C#CCNC(=O)OC(C)(C)C [Compound 49] yielded an IC50 (P97) of 260 nM.

C#Cc1ccc(OCc2nnc(CC3CC3)n2-c2cccnc2)cc1C [Compound 55] gave an IC50 (P97; [1]) of 5300 nM.

In the case of N#Cc1ccc(C#CCOCc2nnc(SC3CCCC3)n2-c2cccnc2)cc1 [Compound 56], the IC50 (P97) is reported as over 6700 nM.

In the case of Cc1cc(OCc2nnc(SC3C=CCCC3)n2-c2cccnc2)ccc1C#CCOC1CCCCO1 (stereo not shown) [Compound 57], the IC50 (P97; [1]) is reported as 110 nM.

For Cc1cc(OCc2nnc(SC3C=CCCC3)n2-c2cccnc2)ccc1C#CCOC(=O)NCCN1CCN(C(C)C)CC1 (stereo not shown) [Compound 71], the IC50 (P97) was 26 nM.

Cc1cc(OCc2nnc(SC3C=CCCC3)n2-c2cccnc2)ccc1C#CCOC(=O)NC1CCN(C)CC1 (stereo not shown) [Compound 75] was tested, and the IC50 (P97) was 25 nM.

With OCC#Cc1ccc(OCc2nnc(SC3C=CCCC3)n2-c2cccnc2)cc1 (stereo not shown) [Compound 91] the IC50 (P97; [1]) was 32 nM.

Work on [2H]C1([2H])C([2H])([2H])C([2H])([2H])C([2H])(Sc2nnc(COc3ccc(C#CCNC4CCN(C)CC4)c(C)c3)n2-c2cccnc2)C1([2H])[2H] [Compound 96] yielded an IC50 (P97) of 67 nM.

With Cc1cc(OCc2nnc(SC3C=CCCC3)n2-c2cccnc2)ccc1C#CCOC(=O)N1CCN(C)CC1 (stereo not shown) [Compound 108] the IC50 (P97) was 15 nM.

Work on Cc1cc(OCc2nnc(SC3CCCC3)n2-c2cccnc2)ccc1C#CCOC(=O)NCCNC(=O)CC1C2CC3CC(C2)CC1C3 (stereo not shown) [Compound 110] yielded an IC50 (P97) of 60 nM.

Cc1cc(OCc2nnc(SC3CCCC3)n2-c2cccnc2)ccc1C#CCOC(=O)NCCOCCNC(=O)CC1C2CC3CC(C2)CC1C3 (stereo not shown) [Compound 111] gave an IC50 (P97) of 30 nM.

With [2H]C1([2H])C([2H])([2H])C([2H])([2H])C([2H])(Sc2nnc(COc3ccc(C#CCO)c(C)c3)n2-c2cccnc2)C1([2H])[2H] [Compound 117] the IC50 (P97) was 990 nM.

In the case of CN1CCC(NC(=O)OCC#Cc2ccc(OCc3nnc(SC4C=CCCC4)n3-c3cccnc3)cc2C#N)CC1 (stereo not shown) [Compound 121], the IC50 (P97; [1]) is reported as 30 nM.

CCC(=O)NCC#Cc1ccc(OCc2nnc(SCC3CO3)n2-c2cccnc2)cc1C (stereo not shown) [Compound 129] was tested, and the “P97 Biomolgreen; 200 μM ATP; IC50 (μM)” value (P97) was “Not active”.

In the case of CCC(=O)NCC#Cc1ccc(OCc2nnc(SC[C@@]3(C)CO3)n2-c2cccnc2)cc1C [Compound 130], the “P97 Biomolgreen; 200 μM ATP; IC50 (μM)” value (P97) is reported as “Not active”.

Work on Cc1cc(OCc2nnc(SC3CCCC3)n2-c2cccnc2)ccc1-c1ccc(S(C)(=O)=O)cc1 [NMS-873] yielded an IC50 (LoxIMVI (BRAFV600E)) of 0.65 µM, an IC50 (HCT116) of 1.2 µM and an IC50 (A549) of 2.2 µM. The IC50 (SKMel2 (NRASQ61R)) was 3.04 µM, the IC50 (PANC-1) was 5 µM and the IC50 (MDA-MB-468) was 1.36 µM. For the same molecule, the IC50 (SW620) was 2.6 µM, the IC50 (RPMI8226) was 0.08 µM and the IC50 (MCF-7) was 3.07 µM. It also gave an IC50 (MDA-MB-231) of 2.95 µM, an IC50 (BxPC-3) of 2.5 µM and an IC50 (WM3918 (BRAF/NRAS WT)) of 2.35 µM. It also gave an IC50 (SKMel5 (BRAFV600E)) of 1.95 µM, an IC50 (CCRF-CEM) of 0.1 µM and an IC50 (A375 (BRAFV600E)) of 2.27 µM. For the same molecule, the IC50 (HCT15) was 2.1 µM and the IC50 (Molt4) was 0.92 µM.
